Key:
BTK-C481S = biological target: T1, BTK-C481S (Homo sapiens, UniProt Q06187, C481S); experiment: BTK-C481S degradation activity test in HEK293 OE BTK-C481S cells; type: cell-based; settings: 24 h incubation, Western blot or Elisa
T1 construct: expressed in transfected cells; host or cells: HEK293 OE BTK-C481S (overexpressing) cell line
Procedure: HEK293 OE BTK-C481S cell line cells were seeded at 500,000 to 1,000,000 cells/well in a 6-well plate. The compounds were diluted to different concentrations and added to the plate, and after 24 h of incubation, the cells were harvested. After lysing the cells, the total protein concentration in each well was determined using the BCA method. The amount of BTK-C481S was determined using Western blot or Elisa method. The amount of undegraded BTKC481S protein at each drug concentration was compared with the amount of BTKC481S protein in the blank control group to calculate the degradation rate. The degradation curve was drawn based on the degradation rate at each concentration, and the half degradation concentration (DC50) was calculated by fitting.

[1] = Mouse absorption test (pharmacokinetic properties in mice); type: in vivo; settings: intragastric, 30 mg/kg; for DNAUC: DNAUC = AUC/Dose; for Cmax: mouse, plasma, po
Procedure: […] The blood collection time points for intragastric administration were 0.25, 0.5, 1, 2, 4, 6, 8, and 24 h. 0.5 mL of blood was taken with a capillary tube from the orbit, and placed in an EP tube containing EDTA anticoagulant. The EP tube was shaken gently for mixing uniformly, and centrifuged at 3500 rpm and 4° C. for 10 min. The supernatant, i.e., plasma, was taken. Analysis was performed using LC-MS/MS.

[2] = Stability of compounds in human liver microsome; type: in vitro ADME; settings: human liver microsomes, NADPH, 37° C., sampling 0-120 min; read-out: Human liver microsome T1/2
Summary of the method: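 Compound incubated at 37° C with human liver microsomes (1 mg in 1 mL PBS) plus NADPH. Samples taken at 0, 15, 30, 60 and 120 min, quenched into internal standard solution and analysed by LC/MS; metabolism calculated from peak area.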

OCI-LY10 cells = experiment: Inhibitory activity on OCI-LY10 cell proliferation (MTS); type: cell-based; settings: Homo sapiens, 72 h
Summary of the method: (§1)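 Cells seeded at 10000/well, treated with compounds from 1000 nM (4-fold, 8 points) for 72 h (OCI-LY10) or 168 h (Mino) at 37° C. MTS added for 2 h, stopped with SDS, absorbance read at 490 and 650 nm; IC50 from dose-response fit.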

B cell activation = experiment: Test of inhibition of B cell activation in PBMC (Anti-Human IgM stimulation, flow cytometry); type: cell-based; settings: Anti-Human IgM 50 μg/mL, 18 h
Procedure: The PBMC cell cryopreservation liquid was resuspended in 1640 complete culture medium to an appropriate concentration, and inoculated into a 96-well round-bottom plate at 15×10^4 cells/90 μL/well, and the culture plate was placed in a CO2 incubator for incubation.
The compounds to be tested were formulated into 10 mM stock solutions which were then fold-serially diluted with DMSO, and then diluted with 1640 complete culture liquid to make the concentration 100 times of the final concentration. The compound diluent was added into the cell solution in each well at 1 μL/well and shaken gently. 2 duplicate wells were set up for each concentration. The dosed cell plate was placed in a 37° C. incubator with 5% carbon dioxide and incubated for 1 h.
3. The dosed cell culture plate was taken and 10 μL of Anti-Human IgM-UNLB was added into the well corresponding to the compound to be tested; in 2 groups of cell blank wells, only 10 μL of Anti-Human IgM-UNLB was added; and in 3 groups of cell blank wells, no reagents and antibodies were added. The final concentration of Anti-Human IgM-UNLB was 50 μg/mL.
4. The loaded cell culture plate was placed in a 37° C. incubator with 5% carbon dioxide and incubated for 18 h. Total system: 90 μL PBMC+1 μL compound+10 μL Anti-Human IgM-UNLB
5. Samples were collected and stained, and the cells were analyzed using flow cytometry to obtain data. (When analyzed using flow cytometry, lymphocytes were gated).

Mino cells = experiment: Inhibitory activity on Mino cell proliferation (MTS); type: cell-based; settings: Homo sapiens, 168 h incubation
Summary of the method: as §1

BTK = biological target: T2, BTK (Homo sapiens, UniProt Q06187); experiment: BTK degradation activity test in Mino cells; type: cell-based; settings: 16 h incubation, Western blot or Elisa
T2 construct: endogenous in cells; host or cells: Mino cells
Summary of the method: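 Mino cells treated with a concentration series of compound for 16 h, then lysed; total protein by BCA. BTK quantified by Western blot or ELISA, degradation rate calculated against blank control, and DC50 fitted from the degradation curve.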

[3] = test system: OCL-LY10 transplanted tumors; experiment: Chronic efficacy test, OCL-LY10 subcutaneous transplanted tumor model; type: in vivo; settings: NOD/SCID mice, intragastric 10 mg/kg, 3 weeks
Procedure: NOD/SCID mice were subcutaneously inoculated with OCL-LY10 cells to establish a tumor model. When the tumors grew to about 100 mm^3, the mice were administered with drugs in groups. The mode of administration was as follows: the test compound was administered intragastrically at 10 mg/kg; The changes in body weight and tumor size of the mice were measured twice per week. After 3 weeks, the mice were sacrificed by cervical dislocation, and the efficacy of the compounds on transplanted tumors in OCL-LY10 mice was examined.

[4] = Beagle dog absorption test (PK in dogs); type: in vivo; settings: plasma, po, intragastric, 10 mg/kg
Procedure: Beagle dogs were used as experimental animals, and drugs were administered intragastrically at 10 mg/kg. The blood collection time points for intragastric administration were 0, 0.25, 0.5, 1, 2, 4, 6, 8, 10, 12, and 24 h. 1.0 mL of blood was collected from the jugular vein, placed in an EDTAK2 centrifuge tube, and placed on an ice bath, centrifuged at 5000 rpm and 4° C. for 10 min to obtain the supernatant, i.e., plasma. 0.1 ml of the plasma was taken for analysis by LC-MS/MS.

T1 sequence (Q06187 whole entry C481S): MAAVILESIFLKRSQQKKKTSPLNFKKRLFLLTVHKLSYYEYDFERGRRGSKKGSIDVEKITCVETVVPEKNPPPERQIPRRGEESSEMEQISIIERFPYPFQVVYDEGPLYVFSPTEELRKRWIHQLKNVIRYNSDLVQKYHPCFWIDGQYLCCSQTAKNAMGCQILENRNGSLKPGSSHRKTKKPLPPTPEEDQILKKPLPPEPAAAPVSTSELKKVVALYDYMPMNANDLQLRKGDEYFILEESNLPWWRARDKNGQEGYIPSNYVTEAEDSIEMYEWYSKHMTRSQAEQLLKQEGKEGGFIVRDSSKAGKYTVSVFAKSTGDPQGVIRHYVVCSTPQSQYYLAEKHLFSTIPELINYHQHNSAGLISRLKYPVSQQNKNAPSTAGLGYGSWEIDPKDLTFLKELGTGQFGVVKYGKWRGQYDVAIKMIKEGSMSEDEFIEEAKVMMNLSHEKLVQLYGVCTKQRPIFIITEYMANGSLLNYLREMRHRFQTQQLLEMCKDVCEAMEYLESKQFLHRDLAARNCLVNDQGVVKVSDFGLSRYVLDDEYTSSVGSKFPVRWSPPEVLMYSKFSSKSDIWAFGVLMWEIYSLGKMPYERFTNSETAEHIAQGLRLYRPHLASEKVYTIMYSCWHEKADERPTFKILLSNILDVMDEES
T2 sequence (Q06187 whole entry): as the sequence (Q06187 whole entry C481S) above, with S481C counted along it

SMILES | DC50 (BTK-C481S) [nM] | DNAUC [1] [ng/ml*h/mpk] | Cmax [1] [ng/mL] | half-life at 0.97 µg/mL [2] [min] | IC50 (OCI-LY10 cells) [nM] | DC50 (BTK) [nM] | Cmax ([1]; class symbols) [ng/mL] | AUC [4] [ng·h/mL] | Inhibition ratio % (B cell activation; concentration 0.16 nM) [%] | Inhibition ratio % (B cell activation; concentration 0.80 nM) [%] | IC50 (Mino cells) [nM] | TGI (%) [3] [%]
CN1CCN([C@@H]2CCCN(c3nnc(C(N)=O)c(Nc4ccc(N5CCN(C[C@@H]6CCN(c7ccc8c(c7)C(=O)N(C7CCC(=O)NC7=O)C8=O)C6)CC5)c(F)c4)n3)C2)C1=O (stereo partly drawn) [Compound 131, 5-((4-(4-(((3S)-1-(2-(2,6-dioxopiperidin-3-yl)-1,3-dioxoisoindolin-5-yl)pyrrolidin-3-yl)methyl)piperazin-1-yl)-3-fluorophenyl)amino)-3-((R)-3-(3-methyl-2-oxoimidazolin-1-yl)piperidin-1-yl)-1,2,4-triazin-6-carboxamide] | < 10 | 3614 | 6190 | > 30 | 0.9 | < 1 |  |  | 60.8 | 100 | 3.61 | 96.67
CN1CCN([C@@H]2CCCN(c3nnc(C(N)=O)c(Nc4ccc(N5CCN(CC6CCN(c7ccc8c(c7)C(=O)N(C7CCC(=O)NC7=O)C8=O)C6)CC5)c(F)c4)n3)C2)C1=O (stereo partly drawn) [Compound 130, 5-((4-(4-((1-(2-(2,6-dioxopiperidin-3-yl)-1,3-dioxoisoindolin-5-yl)pyrrolidin-3-yl)methyl)piperazin-1-yl)-3-fluorophenyl)amino)-3-((R)-3-(3-methyl-2-oxoimidazolin-1-yl)piperidin-1-yl)-1,2,4-triazin-6-carboxamide] | < 10 | 3809 |  | 32.6 | 0.28 | < 1 | > 6000 |  |  |  | 2.41 | 
CN1CCN([C@@H]2CCCN(c3nnc(C(N)=O)c(Nc4ccc(C5CCN(CC6CCN(c7ccc8c(c7)C(=O)N(C7CCC(=O)NC7=O)C8=O)CC6)CC5)cc4)n3)C2)C1=O (stereo partly drawn) [Compound 123, 5-((4-(1-((1-(2-(2,6-dioxopiperidin-3-yl)-1,3-dioxoisoindolin-5-yl)piperidin-4-yl)methyl)piperidin-4-yl)phenyl)amino)-3-((R)-3-(3-methyl-2-oxoimidazolin-1-yl)piperidin-1-yl)-1,2,4-triazin-6-carboxamide] | < 10 | 1920 |  |  | 0.2 | < 1 | > 6000 |  |  |  | 2.11 | 95.66
C=CC(=O)N1CCC[C@@H](n2nc(-c3ccc(Oc4ccccc4)cc3)c3c(N)ncnc32)C1 [Ibrutinib] |  |  |  |  |  |  |  |  |  |  |  | 50.72
CN1CCN([C@@H]2CCCN(c3nnc(C(N)=O)c(Nc4ccc(N5CCN(C[C@H]6CCN(c7ccc8c(c7)C(=O)N(C7CCC(=O)NC7=O)C8=O)C6)CC5)c(F)c4)n3)C2)C1=O (stereo partly drawn) [Compound 132, 5-((4-(4-(((3R)-1-(2-(2,6-dioxopiperidin-3-yl)-1,3-dioxoisoindolin-5-yl)pyrrolidin-3-yl)methyl)piperazin-1-yl)-3-fluorophenyl)amino)-3-((R)-3-(3-methyl-2-oxoimidazolin-1-yl)piperidin-1-yl)-1,2,4-triazin-6-carboxamide] |  | 2430 | 7800 | > 30 | < 1 | < 1 |  | 1690 |  |  | 2.55 | 

Now from value to compound, other results behind:

DC50 (BTK-C481S) [nM] | DNAUC [1] [ng/ml*h/mpk] | Cmax [1] [ng/mL] | half-life at 0.97 µg/mL [2] [min] | IC50 (OCI-LY10 cells) [nM] | DC50 (BTK) [nM] | Cmax ([1]; class symbols) [ng/mL] | AUC [4] [ng·h/mL] | SMILES | Inhibition ratio % (B cell activation; concentration 0.16 nM) [%] | Inhibition ratio % (B cell activation; concentration 0.80 nM) [%] | IC50 (Mino cells) [nM] | TGI (%) [3] [%]
< 10 | 1955 |  | > 30 | 1.5 | < 1 | > 6000 |  | CN1CCN([C@@H]2CCCN(c3nnc(C(N)=O)c(Nc4ccc(N5CCN(CC6CCN(c7ccc(N8CCC(=O)NC8=O)cc7)CC6)CC5)c(F)c4)n3)C2)C1=O [Compound 255, (R)-5-((4-(4-((1-(4-(2,4-dioxotetrahydropyrimidin-1(2H)-yl)phenyl)piperidin-4-yl)methyl)piperazin-1-yl)-3-fluorophenyl)amino)-3-(3-(3-methyl-2-oxoimidazolidin-1-yl)piperidin-1-yl)-1,2,4-triazin-6-carboxamide] |  |  | < 0.26 | 
 |  |  |  |  |  |  | 246 | NC(=O)c1ncc(N2CCCCC2)nc1Nc1ccc(C2CCN(C[C@H]3CCN(c4ccc5c(c4)C(=O)N(C4CCC(=O)NC4=O)C5=O)C3)CC2)cc1 (stereo partly shown) [Compound c, reference compound] | 10.2 | 16.3 |  | 67.59
< 10 |  |  | > 30 | 0.12 | < 1 |  | 6590 | Cc1cc(N2CCC(CN3CCN(c4ccc(Nc5nc(N6CCC[C@@H](N7CCN(C)C7=O)C6)nnc5C(N)=O)cc4F)CC3)CC2)ccc1N1CCC(=O)NC1=O [Compound 257, (R)-5-((4-(4-((1-(4-(2,4-dioxotetrahydropyrimidin-1(2H)-yl)-3-methylphenyl)piperidin-4-yl)methyl)piperazin-1-yl)-3-fluorophenyl)amino)-3-(3-(3-methyl-2-oxoimidazolidin-1-yl)piperidin-1-yl)-1,2,4-triazin-6-carboxamide] | 100 | 100 | < 0.26 | 98.74
< 10 | 2223 |  | > 30 | 0.61 | < 1 | > 6000 |  | COc1cc(N2CCC(CN3CCN(c4ccc(Nc5nc(N6CCC[C@@H](N7CCN(C)C7=O)C6)nnc5C(N)=O)cc4F)CC3)CC2)ccc1N1CCC(=O)NC1=O [Compound 259, (R)-5-((4-(4-((1-(4-(2,4-dioxotetrahydropyrimidin-1(2H)-yl)-3-methoxyphenyl)piperidin-4-yl)methyl)piperazin-1-yl)-3-fluorophenyl)amino)-3-(3-(3-methy 1-2-oxoimidazolidin-1-yl)piperidin-1-yl)-1,2,4-triazin-6-carboxamide] |  |  | 5.58 | 
< 10 |  |  | > 30 | 1.39 | < 1 |  |  | CN1CCN([C@@H]2CCCN(c3nnc(C(N)=O)c(Nc4ccc(N5CCN(CC6CCN(c7ccc(C(=O)NC8CCC(=O)NC8=O)nc7)CC6)CC5)c(F)c4)n3)C2)C1=O (stereo partly drawn) [Compound 146, 5-((4-(4-((1-(6-((2,6-dioxopiperidin-3-yl)carbamoyl)pyridin-3-yl)piperidin-4-yl)methyl)piperazin-1-yl)-3-fluorophenyl)amino)-3-((R)-3-(3-methyl-2-oxoimidazolin-1-yl)piperidin-1-yl)-1,2,4-triazin-6-carboxamide] |  |  | 1.73 | 
